Laboratory results reported in US9957226B2, “Antimicrobial compounds” (AKTHELIA PHARMACEUTICALS, priority 2013, dated 2018).
“Also recorded” adds a separate entry of the source. Read-outs that look alike come from different tables or passages of the source.

Key:
CAMP gene [1] = assay: Fold induction assay in the MN8CampLuc reporter cell line (luciferase coupled to CAMP gene); format: cell-based, human; conditions: for Fold induction (as luciferase activity): cells pre-differentiated by treatment with galactose, FIG. 4 and FIG. 5
Method: MN8CampLuc cells were handled according to Nylen et. al. with the following exception when predifferention of cells were performed before induction: […]

LC3 = assay: Immunofluorescence of LC3 in HEK-293 cells; format: cell-based; conditions: 10 μM, 24 hrs, FIG. 9 lower panel
Method: (§1) RT-PCR experiments for expression of marker genes for autophagy in HEK-293 cells were measured by real-time PCR. Data were normalized by the expression of the 18s rRNA housekeeping gene. For the immunofluorescence spectroscopy experiments HEK-293 cells were fixed after treatment with the inducers or control. The cells were then stained with DAPI to visualize the nuclei (blue), and immunolabeled with the anti-LC3, followed by the addition of Alexa-fluor 488 (green). Scale bar=10 μm.

[2] = test system: autophagy-related genes Beclin-1 and AtgS; assay: RT-PCR of autophagy marker genes in HEK-293 cells; format: cell-based; conditions: for Expression of autophagy-related genes Beclin-1 and AtgS: 24 hrs, PBA 2 mM, compound 5 10 μM, Rapamycin 100 nM, FIG. 9 upper panel
Method: as §1

CAMP gene [3] = assay: RT-PCR of CAMP gene expression in parental HT-29 cell line; format: cell-based, human
Method: RT-PCR experiments were performed according to Nylen et. al. (Nylén F, Miraglia E, Cederlund A, Ottosson H, Stromberg R, Gudmundsson G H, Agerberth B. 2013. Boosting innate immunity: Development and validation of a cell-based screening assay to identify LL-37 inducers. Innate Immun.).

histone deacetylases = conditions: average of assays reported in PubChem, FIG. 4 right panel; cited from earlier work
[4] = MN8CampLuc reporter cell line, FIG. 6
[5] = MN8CampLuc reporter cell line, FIG. 2

Molecule: Nc1ccccc1NC(=O)c1ccccc1 [Compound 1, N-(2-Aminophenyl)benzamide]
- Concentration required for induction (CAMP gene [1]; MN8CampLuc, FIG. 2): slightly higher concentration

Molecule: COc1ccc(C(=O)Nc2ccccc2N)cc1 [Compound 2, N-(2-Aminophenyl)-4-methoxybenzamide]
- Concentration required for induction (CAMP gene [1]; MN8CampLuc, FIG. 2): slightly higher concentration

Molecule: Nc1ccccc1NC(=O)c1ccc(CNC(=O)OCc2ccccc2)cc1 [Compound 4, Benzyl (4-((2-aminophenyl)carbamoyl)-benzyl)carbamate]
- Concentration required for induction (CAMP gene [1]; MN8CampLuc, FIG. 2): slightly higher concentration

Molecule: Nc1ccccc1NC(=O)c1ccc(CNC(=O)OCc2cccnc2)cc1 [Compound 5, Pyridin-3-ylmethyl (4-((2-aminophenyl)-carbamoyl)benzyl)carbamate]
- LC3 expression in its membrane form (LC3-II) (LC3): upregulate
- Expression of autophagy-related genes Beclin-1 and AtgS [2]: increased expression
- Expression of autophagy-related genes Beclin-1 and AtgS ([2]; listed as Entinostat): upregulate the expression
- Autophagy ([2]; marker genes and LC-3, FIG. 9): induce autophagy; also recorded: stimulates autophagy
- Induction of the CAMP gene at mRNA level (RT-PCR) (CAMP gene [3]; HT29 parental cells, FIG. 7): induces the CAMP gene; also recorded: enhanced transcription of the CAMP gene
- Induction of the CAMP gene at mRNA level in combination with Vitamin D (CAMP gene [3]; HT29 parental cells, FIG. 7): synergy with Vitamin D; also recorded: synergism with Vitamin D
- CAMP gene expression (mRNA), time course (CAMP gene [3]; HT-29 cells, 4 and 8 h, FIG. 8): did not induce
- CAMP gene expression (mRNA), time course (CAMP gene [3]; HT-29 cells, 24 and 48 h, FIG. 8): induction was prominent
- Induction in combination with VitD (CAMP gene [1]; [4]): synergistic effect; also recorded: Synergism with Vitamin D
- Induction on co-incubation with PBA (13) (CAMP gene [1]; [4]): reduces entinostat-elicited induction
- Inducing concentration lower than that of PBA (CAMP gene [1]; MN8CampLuc, 0.625-5 μM vs PBA 2-4 mM): about 3 orders of magnitude
- Concentration required for induction (CAMP gene [1]; MN8CampLuc, FIG. 2): lowest concentration; also recorded: effective already at μM concentrations
- Induction compared with PBA (13) at 2-4 mM (CAMP gene [1]; MN8CampLuc, compound 5 at 0.625-5 μM, FIG. 2): considerably higher

Molecule: COC(=O)Cn1cc(C(=O)NCc2ccc(C(=O)Nc3ccccc3N)cc2)nn1 [Compound 6, Methyl 2-(4-((4-((2-aminophenyl)carbamoyl)benzyl)carbamoyl)-1 H-1,2,3-triazol-1-yl)acetate]
- Concentration required for induction (CAMP gene [1]; MN8CampLuc, FIG. 2): slightly higher concentration

Molecule: CN(C)c1ccc(NC(=O)CCCC(=O)Nc2ccccc2N)cc1 [Compound 9, N^1-(2-aminophenyl)-N^5-(4-(dimethylamino)-phenyl)glutaramide]
- Fold induction of the CAMP gene (LL-37-luciferase) (CAMP gene [1]; [5]): at a cost of inducing ability

Molecule: O=C(NCc1ccc(C(=O)O)cc1)OCc1cccnc1 [Compound 11, 4-((((pyridin-3-ylmethoxy)carbonyl)amino)methyl)benzoic acid]
- Fold induction of the CAMP gene (LL-37-luciferase) (CAMP gene [1]; [5]): virtually no induction; also recorded: complete inactivity

Molecule: O=C(CCCCCCC(=O)Nc1ccccc1)NO [Compound 12, N1-hydroxy-N8-phenyloctanediamide]
- Fold induction (as luciferase activity) (CAMP gene [1]; MN8CampLuc): much less fold induction than compound 5
- Fold induction of the CAMP gene (CAMP gene [1]; MN8CampLuc, with and without pre-differentiation of cells by galactose, FIG. 3): little induction; also recorded: poor inducer

Molecule: O=C(Nc1ccccc1O)c1ccccc1 [Compound 14, N-(2-Hydroxyphenyl) benzamide]
- Fold induction of the CAMP gene (LL-37-luciferase) (CAMP gene [1]; [5]): virtually no induction; also recorded: complete or significant loss of the induction ability

Molecule: COc1ccccc1NC(=O)c1ccccc1 [Compound 15, N-(2-methoxyphenyl)benzamide]
- Fold induction of the CAMP gene (LL-37-luciferase) (CAMP gene [1]; [5]): virtually no induction; also recorded: complete or significant loss of the induction ability

Molecule: COc1ccc(CNc2ccccc2N)cc1 [Compound 16, N-(4-Methoxybenzyl)-1,2-benzenediamine]
- Fold induction (as luciferase activity) (CAMP gene [1]; MN8CampLuc): at a cost of inducing ability

Molecule: NCCNC(=O)c1ccccc1 [Compound 17, N-(2-aminoethyl)-benzamide]
- Fold induction (as luciferase activity) (CAMP gene [1]; MN8CampLuc): abolition of induction; also recorded: complete or significant loss of the induction ability

Molecule: COc1ccc(C(=O)NCCN)cc1 [Compound 18, N-(2-aminoethyl)-4-methoxybenzamide]
- Fold induction (as luciferase activity) (CAMP gene [1]; MN8CampLuc): abolition of induction; also recorded: complete or significant loss of the induction ability

Molecule: CC(/C=C/C(=O)NO)=C\[C@@H](C)C(=O)c1ccc(N(C)C)cc1 [Compound 19, Trichostatin A]
- Fold induction (as luciferase activity) (CAMP gene [1]; MN8CampLuc): much less fold induction than compound 5
- HDAC inhibition (known IC50 values) compared with compound 5 (histone deacetylases): considerably more powerful HDAC inhibitors

Molecule: Phenylbutyrate [Compound 13]
- Expression of autophagy-related genes Beclin-1 and AtgS [2]: increased expression
- CAMP gene expression (mRNA), course over time (CAMP gene [3]; HT-29 cells, FIG. 8): gradual increase of the CAMP gene expression
- Fold induction of the CAMP gene (LL-37-luciferase) (CAMP gene [1]): considerably lower induction
